# Measured values taken from patent US20240238242A1, “EGCG buccal tablet and use thereof” (priority 2023, published 2024).
# Like-named read-outs stand apart in the source and are kept apart here.
# Experiments:
# SARS-CoV-2 Omicron BA.2 = test system: SARS-CoV-2 Omicron BA.2; parameters: species or system BALB/c mice; settings: mouse, in vivo
# [1] = test system: Influenza B virus (B/Lee); assay: Inactivation efficiency against influenza B virus B/Lee strain (residual TCID50 on MDCK cells); type: cell-based; settings: for average inactivation efficiency against virus: B/Lee virus, two experiments
# [2] = test system: Madin-darby canine kidney cells (MDCK)
structure (smiles),measurement,setting,value
"O=C(O[C@@H]1Cc2c(O)cc(O)cc2O[C@@H]1c1cc(O)c(O)c(O)c1)c1cc(O)c(O)c(O)c1 [EGCG, Epigallocatechin gallate]",nucleic acid loads of SARS-CoV-2 Omicron BA.2 in lungs and turbinates,SARS-CoV-2 Omicron BA.2,significantly reduced
same,CPE test (virus replication in the cell wells),"[1]; 0.2 mM EGCG + B/Lee virus, 1 minute, first experiment, dilution factor 10^1, wells 1-10",+
same,CPE test (virus replication in the cell wells),"[1]; 0.2 mM EGCG + B/Lee virus, 1 minute, first experiment, dilution factor 10^2, wells 1-10",+
same,CPE test (virus replication in the cell wells),"[1]; 0.2 mM EGCG + B/Lee virus, 1 minute, first experiment, dilution factor 10^3, wells 1-10",+
same,CPE test (virus replication in the cell wells),"[1]; 0.2 mM EGCG + B/Lee virus, 1 minute, first experiment, dilution factor 10^4, wells 1-10",+
same,CPE test (virus replication in the cell wells),"[1]; 0.2 mM EGCG + B/Lee virus, 1 minute, first experiment, dilution factor 10^5, wells 1-10",− and +
same,CPE test (virus replication in the cell wells),"[1]; 0.2 mM EGCG + B/Lee virus, 1 minute, first experiment, dilution factor 10^6, wells 1-10",− and +
same,CPE test (virus replication in the cell wells),"[1]; 0.2 mM EGCG + B/Lee virus, 1 minute, first experiment, dilution factor 10^7, wells 1-10",−
same,CPE test (virus replication in the cell wells),"[1]; 0.2 mM EGCG + B/Lee virus, 1 minute, first experiment, dilution factor 10^8, wells 1-10",−
same,CPE test (virus replication in the cell wells),"[1]; 0.2 mM EGCG + B/Lee virus, 1 minute, second experiment, dilution factor 10^1, wells 1-10",+
same,CPE test (virus replication in the cell wells),"[1]; 0.2 mM EGCG + B/Lee virus, 1 minute, second experiment, dilution factor 10^2, wells 1-10",+
same,CPE test (virus replication in the cell wells),"[1]; 0.2 mM EGCG + B/Lee virus, 1 minute, second experiment, dilution factor 10^3, wells 1-10",+
same,CPE test (virus replication in the cell wells),"[1]; 0.2 mM EGCG + B/Lee virus, 1 minute, second experiment, dilution factor 10^4, wells 1-10",+
same,CPE test (virus replication in the cell wells),"[1]; 0.2 mM EGCG + B/Lee virus, 1 minute, second experiment, dilution factor 10^5, wells 1-10",+
same,CPE test (virus replication in the cell wells),"[1]; 0.2 mM EGCG + B/Lee virus, 1 minute, second experiment, dilution factor 10^6, wells 1-10",− and +
same,CPE test (virus replication in the cell wells),"[1]; 0.2 mM EGCG + B/Lee virus, 1 minute, second experiment, dilution factor 10^7, wells 1-10",−
same,CPE test (virus replication in the cell wells),"[1]; 0.2 mM EGCG + B/Lee virus, 1 minute, second experiment, dilution factor 10^8, wells 1-10",−
same,average inactivation efficiency against virus,"[1]; 0.2 mM EGCG, 1 minute",18.45%
same,CPE test (virus replication in the cell wells),"[1]; 1 mM EGCG + B/Lee virus, 1 minute, first experiment, dilution factor 10^3, wells 1-10",+
same,CPE test (virus replication in the cell wells),"[1]; 1 mM EGCG + B/Lee virus, 1 minute, first experiment, dilution factor 10^4, wells 1-10",+
same,CPE test (virus replication in the cell wells),"[1]; 1 mM EGCG + B/Lee virus, 1 minute, first experiment, dilution factor 10^5, wells 1-10",+
same,CPE test (virus replication in the cell wells),"[1]; 1 mM EGCG + B/Lee virus, 1 minute, first experiment, dilution factor 10^6, wells 1-10",−
same,CPE test (virus replication in the cell wells),"[1]; 1 mM EGCG + B/Lee virus, 1 minute, first experiment, dilution factor 10^7, wells 1-10",−
same,CPE test (virus replication in the cell wells),"[1]; 1 mM EGCG + B/Lee virus, 1 minute, first experiment, dilution factor 10^8, wells 1-10",−
same,CPE test (virus replication in the cell wells),"[1]; 1 mM EGCG + B/Lee virus, 1 minute, second experiment, dilution factor 10^3, wells 1-10",+
same,CPE test (virus replication in the cell wells),"[1]; 1 mM EGCG + B/Lee virus, 1 minute, second experiment, dilution factor 10^4, wells 1-10",+
same,CPE test (virus replication in the cell wells),"[1]; 1 mM EGCG + B/Lee virus, 1 minute, second experiment, dilution factor 10^5, wells 1-10",+
same,CPE test (virus replication in the cell wells),"[1]; 1 mM EGCG + B/Lee virus, 1 minute, second experiment, dilution factor 10^6, wells 1-10",− and +
same,CPE test (virus replication in the cell wells),"[1]; 1 mM EGCG + B/Lee virus, 1 minute, second experiment, dilution factor 10^7, wells 1-10",−
same,CPE test (virus replication in the cell wells),"[1]; 1 mM EGCG + B/Lee virus, 1 minute, second experiment, dilution factor 10^8, wells 1-10",−
same,CPE test (virus replication in the cell wells),"[1]; 1 mM EGCG + B/Lee virus, 5 minute, first experiment, dilution factor 10^2, wells 1-10",+
same,CPE test (virus replication in the cell wells),"[1]; 1 mM EGCG + B/Lee virus, 5 minute, first experiment, dilution factor 10^3, wells 1-10",+
same,CPE test (virus replication in the cell wells),"[1]; 1 mM EGCG + B/Lee virus, 5 minute, first experiment, dilution factor 10^4, wells 1-10",+
same,CPE test (virus replication in the cell wells),"[1]; 1 mM EGCG + B/Lee virus, 5 minute, first experiment, dilution factor 10^5, wells 1-10",+
same,CPE test (virus replication in the cell wells),"[1]; 1 mM EGCG + B/Lee virus, 5 minute, first experiment, dilution factor 10^6, wells 1-10",−
same,CPE test (virus replication in the cell wells),"[1]; 1 mM EGCG + B/Lee virus, 5 minute, first experiment, dilution factor 10^7, wells 1-10",−
same,CPE test (virus replication in the cell wells),"[1]; 1 mM EGCG + B/Lee virus, 5 minute, first experiment, dilution factor 10^8, wells 1-10",−
same,CPE test per cell well,"[1]; 1 mM EGCG + B/Lee virus, 5 minute, second experiment, dilution factor 10^1, wells 1-10",+
same,CPE test per cell well,"[1]; 1 mM EGCG + B/Lee virus, 5 minute, second experiment, dilution factor 10^2, wells 1-10",+
same,CPE test per cell well,"[1]; 1 mM EGCG + B/Lee virus, 5 minute, second experiment, dilution factor 10^3, wells 1-10",+
same,CPE test per cell well,"[1]; 1 mM EGCG + B/Lee virus, 5 minute, second experiment, dilution factor 10^4, wells 1-10",+
same,CPE test per cell well,"[1]; 1 mM EGCG + B/Lee virus, 5 minute, second experiment, dilution factor 10^5, wells 1-10",+ and −
same,CPE test per cell well,"[1]; 1 mM EGCG + B/Lee virus, 5 minute, second experiment, dilution factor 10^6, wells 1-10",−
same,CPE test per cell well,"[1]; 1 mM EGCG + B/Lee virus, 5 minute, second experiment, dilution factor 10^7, wells 1-10",−
same,CPE test per cell well,"[1]; 1 mM EGCG + B/Lee virus, 5 minute, second experiment, dilution factor 10^8, wells 1-10",−
same,average inactivation efficiency against virus,"[1]; 1 mM EGCG, 1 minute",28.74%
same,average inactivation efficiency against virus,"[1]; 1 mM EGCG, 5 minutes",18.45%
same,CPE test (virus replication in the cell wells),"[1]; 5 mM EGCG + B/Lee virus, 1 minute, first experiment, dilution factor 10^4, wells 1-10",+
same,CPE test (virus replication in the cell wells),"[1]; 5 mM EGCG + B/Lee virus, 1 minute, first experiment, dilution factor 10^5, wells 1-10",+
same,CPE test (virus replication in the cell wells),"[1]; 5 mM EGCG + B/Lee virus, 1 minute, first experiment, dilution factor 10^6, wells 1-10",−
same,CPE test (virus replication in the cell wells),"[1]; 5 mM EGCG + B/Lee virus, 1 minute, first experiment, dilution factor 10^7, wells 1-10",−
same,CPE test (virus replication in the cell wells),"[1]; 5 mM EGCG + B/Lee virus, 1 minute, first experiment, dilution factor 10^8, wells 1-10",−
same,CPE test (virus replication in the cell wells),"[1]; 5 mM EGCG + B/Lee virus, 1 minute, second experiment, dilution factor 10^4, wells 1-10",+
same,CPE test (virus replication in the cell wells),"[1]; 5 mM EGCG + B/Lee virus, 1 minute, second experiment, dilution factor 10^5, wells 1-10",− and +
same,CPE test (virus replication in the cell wells),"[1]; 5 mM EGCG + B/Lee virus, 1 minute, second experiment, dilution factor 10^6, wells 1-10",−
same,CPE test (virus replication in the cell wells),"[1]; 5 mM EGCG + B/Lee virus, 1 minute, second experiment, dilution factor 10^7, wells 1-10",−
same,CPE test (virus replication in the cell wells),"[1]; 5 mM EGCG + B/Lee virus, 1 minute, second experiment, dilution factor 10^8, wells 1-10",−
same,CPE test (virus replication in the cell wells),"[1]; 5 mM EGCG + B/Lee virus, 5 minute, first experiment, dilution factor 10^4, wells 1-10",+ and −
same,CPE test (virus replication in the cell wells),"[1]; 5 mM EGCG + B/Lee virus, 5 minute, first experiment, dilution factor 10^5, wells 1-10",+ and −
same,CPE test (virus replication in the cell wells),"[1]; 5 mM EGCG + B/Lee virus, 5 minute, first experiment, dilution factor 10^6, wells 1-10",− and +
same,CPE test (virus replication in the cell wells),"[1]; 5 mM EGCG + B/Lee virus, 5 minute, first experiment, dilution factor 10^7, wells 1-10",− and +
same,CPE test (virus replication in the cell wells),"[1]; 5 mM EGCG + B/Lee virus, 5 minute, first experiment, dilution factor 10^8, wells 1-10",−
same,CPE test per cell well,"[1]; 5 mM EGCG + B/Lee virus, 5 minute, second experiment, dilution factor 10^4, wells 1-10",+
same,CPE test per cell well,"[1]; 5 mM EGCG + B/Lee virus, 5 minute, second experiment, dilution factor 10^5, wells 1-10",− and +
same,CPE test per cell well,"[1]; 5 mM EGCG + B/Lee virus, 5 minute, second experiment, dilution factor 10^6, wells 1-10",−
same,CPE test per cell well,"[1]; 5 mM EGCG + B/Lee virus, 5 minute, second experiment, dilution factor 10^7, wells 1-10",−
same,CPE test per cell well,"[1]; 5 mM EGCG + B/Lee virus, 5 minute, second experiment, dilution factor 10^8, wells 1-10",−
same,average inactivation efficiency against virus,"[1]; 5 mM EGCG, 1 minute",52.43%
same,average inactivation efficiency against virus,"[1]; 5 mM EGCG, 5 minutes",36.90%
same,"CPE test / cytotoxicity, negative control group",[2],−
same,"Cytotoxicity / CPE in cell wells 1-10, negative control group",[2],−
same,"Cytotoxicity / CPE in cell wells, negative control group (EGCG + culture medium)",[2],−
same,"Cytotoxicity / CPE in cell wells, negative control group (wells 1-10)",[2],−
same,Cytotoxicity / CPE in negative control group,[2],−
same,"Cytotoxicity / CPE per cell well, negative control group",[2],−
same,"Cytotoxicity / CPE test, negative control group",[2],−
same,cell status in negative control group,"[2]; MDCK cells, 0.2 mM group",good growth status
same,cytotoxicity in negative control group,"[2]; MDCK cells, 1 mM group",cytotoxicity was observed
same,cytotoxicity in negative control group,"[2]; MDCK cells, 5 mM group",cytotoxicity was observed
same,cytotoxicity in negative control group,"[2]; MDCK cells, sample of 10 times dilution in the 1 mM group",cytotoxicity was observed
